Laboratory results reported in patent US4681877A, “Pivaloyloxymethyl 7-β-[2-(2-amino-4-thiazolyl)-2-methoxyiminoacetamido]-3-(2-amino-1, 3-thiadiazolyl-5-thiomethyl)-3-cepheme-4-carboxylate and pharmaceutical composition containing the same” (Kureha Kagaku Kogyo Kabushiki Kaisha, priority 1982, dated 1987).
Where two headings read alike, the source gives them in different places.

Assays:
[1] = tested on: Serratia marcescens IAM 1223; test: Minimum growth-inhibition concentration (MIC), Serratia marcescens IAM 1223; format: cell-based; conditions: Mueller-Hinton agar, 18 to 24 hours at 37° C.
Protocol: (§1) The minimum inhibiting concentration(MIC) of the compound represented by the formula(I) and the compound represented by the formula(V) was measured according to the standard method of Japan Society of Chemotherapy against each of the following bacterial species:
(§2) Anti-bacterial activity of the compounds respectively produced in Examples 1, 2 and 3 was determined according to the standard method of Japanese Society of Chemotherapy as follows.
(§3) Each of the following bacterial strains was inoculated in Mueller-Hinton's culture medium and cultured for 18 to 48 hours at 37° C. to obtain a standard bacterial liquid containing 10^6 cells/ml.
(§4) Separately, agar plates were prepared by adding each of the solutions of each of the compounds respectively produced in Examples, 1, 2 and 3 at predetermined concentrations in amount of one ninth by weight to Mueller-Hinton's culture medium.

E. coli IFO 12734 = test: Minimum growth-inhibition concentration (MIC), E. coli IFO 12734; format: cell-based, Escherichia coli; conditions: Mueller-Hinton agar, 18 to 24 hours at 37° C.
Protocol: as §1, §2, §3, §4

[2] = tested on: Staphylococcus aureus IAM 1011; test: Minimum growth-inhibition concentration (MIC), Staphylococcus aureus IAM 1011; format: cell-based; conditions: Mueller-Hinton agar, 18 to 24 hours at 37° C.
Protocol: as §1, §2, §3, §4

[3] = Stability in blood of living body: serum concentration after injection; format: in vivo, male Wistar rats; conditions: rat, iv, caudal vein, Wistar rats, read-out: Concentration in the serum specimen
Protocol: A solution of sodium salt (the product in Example 2) of the compound represented by the formula(I) in an aqueous physiological solution was injected into each of 5 healthy male Wistar rats (body weight of about 180 g) after 6 to 7 weeks of birth from the caudal vein by one shot method. The same procedure was carried out by using a solution of the sodium salt in a 1/15 M phosphoric acid buffer of pH of 7.0. After 30 min, 2 hours and 4 hours of the injection, the blood of the rate was collected from the cut carotid artery of the rat, and the collected blood was subjected to centrifugation for 15 min at 3000 rpm to obtain the three kinds of serum specimens (collected after 30 min, 2 hours and 4 hours after the injection).
Separately, flat culture plates were made by adding 0.05 % by weight of Escherichia coli IFO 12734 into Heart-infusion agar culture medium, and a penicillin cup of 8 mm in diameter was placed on the flat culture medium, and each of the serum specimen, each of the blood specimen, 1/15 M phosphoric acid buffer solution or a 50% acetone-phosphoric acid buffer solution was introduced into the cup. The thus prepared inoculant was left for 30 min to 1 hour at room temperature and incubated for a night at 37° C.
Then, the diameter of the growth-inhibition circle around the penicillin cup on each flat culture plate was determined, and according to the preliminarily prepared graph showing the relationship between the diameter of the growth-inhibition circle and the concentration of the sodium salt in the serum specimen, the blood specimen, 1/15 M phosphoric acid buffer solution and 50% acetone-phosphoric acid buffer solution, the concentration of the sodium salt in the serum specimen was obtained as: […]

E. coli W 3636 = test: Minimum growth-inhibition concentration (MIC), E. coli W 3636; format: cell-based, Escherichia coli; conditions: Mueller-Hinton agar, 18 to 24 hours at 37° C.
Protocol: as §1, §2, §3, §4

[4] = tested on: Pseudomonas aeruginosa IAM 1514; test: Minimum growth-inhibition concentration (MIC), Pseudomonas aeruginosa IAM 1514; format: cell-based; conditions: Mueller-Hinton agar, 18 to 24 hours at 37° C.
Protocol: as §1, §2, §3, §4

[5] = Stability to rat liver homogenate (S-9 mix): rate of maintaining the antibacterial activity; format: in vitro ADME; conditions: rat, s9
Protocol: For verifying the stability of the compound represented by the formula (I), 7-beta-[2-(2-amino-4-thiazolyl)-2-methoxyiminoacetamindo]-3-(-2-amino-1,3,4-thiadiazoyl-5-thiomethyl)-3-cepheme -4-carboxyulic acid in living body of the host, the following model experiment was carried out.
(§5) As a metabolism-activating enzyme, a rat liver homogenate (S-9, manufactured by Oriental Yeast Co.) was used in the following composition(referred to as S-9 mix, hereinafter):
(§6) After mixing 0.1 ml of a solution of the compound to be tested with 0.9 ml of S-9 mix or 0.9 ml of 0.1 M phosphoric acid buffer solution, the mixture was subjected to shaking culture for 20 min at 37° C. to prepare a test reaction solution for use in the following experiment.
(§7) Staphylococcus aureus IAM 1011 was inoculated to Mueller-Hinton'culture medium and the inoculum was cultured for 18 hours at 37° C. and after adjusting the number of the bacterial cells to 10^8 /ml of the culture medium, 50 times by weight of the Mueller-Hinton agar culture medium were added to the cultured medium to prepare flat culture plates. After placing a penicillin-cup of 8 mm in diameter on each of the thus prepared flat culture plates, 0.1 ml of the above-mentioned test reaction solution was introduced into the penicillin cup, and after leaving the system for 2 hours at 4° C., the system was incubated for 18 hours at 37° C., and the diameter of the growth-inhibition circle around the cup on the culture plate was determined.
By applying each of the thus determined diameters of the respective growth-inhibition circles on a diagram preliminarily prepared to indicate the relationship between the diameter of the growth-inhibition circle and the concentration of the compound in the culture medium before carrying out the culture, the concentration of the compound in the culture medium in the presence of S-9 mix was obtained(referred to as C2). […]

[6] = tested on: Proteus vulgaris IAM 1025; test: Minimum growth-inhibition concentration (MIC), Proteus vulgaris IAM 1025; format: cell-based; conditions: Mueller-Hinton agar, 18 to 24 hours at 37° C.
Protocol: as §1, §2, §3, §4

[7] = Acute mammalian toxicity (LD50, 7-day mortality); format: in vivo; conditions: mouse, in vivo
Protocol: (§8) Acute mammalian toxicity of the compound represented by the formula(I) and the compound represented by the formula(V) was investigated by orally or intraperitoneally administering a series of aqueous physiological saline solution containing each of the above-mentioned compounds to groups of ICR-JCL mice, and observing the toxic symptoms appearing on the mice including the mortality for 7 days. Then, from the cumulative mortality, LD50 values were calculated by Litchfield-Wilcoxon's graphical method.

ICR-JCL mice = test: Acute mammalian toxicity (LD50, 7-day mortality); format: in vivo; conditions: autopsy after 7 days, dead and live mice
Protocol: as §8

Lactobacillus bifidus = tested on: Lactobacillus bifidus; set-up: species or system Lactobacillus bifidus; female ICR mice; conditions: mouse, in vivo, po, 100 mg/kg
Protocol: (§9) The above-mentioned pivaloyloxymethyl ester represented by the formula(V) was orally administered for two continued days at a daily dosage of 100 mg/kg body weight to each of five female ICR mice of a group after 6 weeks of birth. Each of the two fecal specimens respectively collected before and after one day of the administration was diluted with 100 times by weight of an anaerobic diluent(a phosphoric buffer solution) and was ground in a mortar, and 0.1 ml of the ground material was smeared on each of the following culture media for the following bacteria and the thus inoculated culture media were incubated under the following conditions. Thereafter, the number of the following bacteria was determined on each culture medium.

[8] = tested on: Staphylococcus aureus IAM 1011; test: Stability of the compound of formula (V): growth-inhibiting circle with/without S-9 mix; format: cell-based; conditions: formula (I) = 100
Protocol: as §5, §6, §7
The same test as above was carried on the compound represented by the formula(V). […]

Escherichia coli [9] = test: Activity against Escherichia coli before and after metabolism by rat liver homogenate; format: cell-based
Protocol: The same test as above was carried on the compound represented by the formula(V). The results obtained were compared to the results of the test (1) on the compound represented by the formula(I) according to the following criterion.
Taking the diameter of the growth-inhibiting circle due to the compound represented by the formula(I) at the same concentration as 100, and the ratio of the diameter of the growth-inhibiting circle due to the compound represented by the fomula(V) to the diameter of the growth-inhibiting circle due to the compound represented by the formula(I) is represented by the percentages as follows, and the respective signs are attributed to the respective percentage.

Escherichia coli [10] = test: Number of bacterial cells in feces, E. coli; format: in vivo, Escherichia coli; female ICR mice; conditions: after 2 days oral 100 mg/kg; before: 6.4
Protocol: as §9

Streptococcus sp. = tested on: Streptococcus sp.; set-up: species or system Streptococcus sp.; female ICR mice; conditions: mouse, in vivo, po, 100 mg/kg
Protocol: as §9

Bacterioides sp. = tested on: Bacterioides sp.; set-up: species or system Bacterioides sp.; female ICR mice; conditions: mouse, in vivo, po, 100 mg/kg
Protocol: as §9

test bacterial species = test: Anti-bacterial activity (MIC) in general, all test species; format: cell-based; conditions: against the test bacterial species
Protocol: as §1
Escherichia coli IFO 12734
Staphylococcus aureus IAM 1011
Proteus vulgaris IAM 1025
Pseudomonas aeruginosa IAM 1514 and
Serratia marcescens IAM 1223

Pseudomonas aeruginosa = tested on: Pseudomonas aeruginosa; set-up: species or system Pseudomonas aeruginosa; female ICR mice; conditions: mouse, in vivo, po, 100 mg/kg
Protocol: as §9

Lactobacillus sp. = tested on: Lactobacillus sp.; set-up: species or system Lactobacillus sp.; female ICR mice; conditions: mouse, in vivo, po, 100 mg/kg
Protocol: as §9

Escherichia coli IFO = test: Effects on infectious disease (mice infected with Escherichia coli IFO); format: in vivo; conditions: orally 100 mg/kg just after and 4 hours after inoculation; 7 days
Protocol: After inoculating a group consisting of 20 mice with Escherichia coli IFO intraperitoneously to be infected, the compound represented by the formula(V) was orally administered to the mice just after and after 4 hours of inoculation at a dose rate of 100 mg/kg body weight, and after 7 days of the administration, the effectiveness of the compound was judged by observing the death rate of each group of mice by the infection.
In the same manner, after inoculating another group consisting of 20 mice with Escherichia coli IFO intraperitoneously to be infected, the compound represented by the formula(I) was orally administered thereto just after and after 4 hours of inoculation at the dose rate of 100 mg/kg body weight, and after 7 days of the administration, the effectiveness of the compound was judged by observing the rate of survival of the mice.

Compound: CO/N=C(\C(=O)N[C@@H]1C(=O)N2C(C(=O)O)=C(COC(C)=O)CS[C@H]12)c1csc(N)n1 [CEFOTAX ®, reference compound]
- Minimum growth-inhibition concentration (MIC) on Serratia marcescens IAM 1223 [1]: 0.2
- Minimum growth-inhibition concentration (MIC) on E. coli IFO 12734 (E. coli IFO 12734): < 0.05
- Minimum growth-inhibition concentration (MIC) on Staphylococcus aureus IAM 1011 [2]: 1.56
- concentration at 0.5 h ([3]; 30 min after injection): 7000 ng/mL
- concentration at 2 h ([3]; 2 hours after injection): 2500 ng/mL
- concentration at 4 h ([3]; 4 hours after injection): 400 ng/mL
- Minimum growth-inhibition concentration (MIC) on E. coli W 3636 (E. coli W 3636): 0.1
- Minimum growth-inhibition concentration (MIC) on Pseudomonas aeruginosa IAM 1514 [4]: 50
- remaining at 20 min [5]: 17%
- Minimum growth-inhibition concentration (MIC) on Proteus vulgaris IAM 1025 [6]: < 0.05

Compound: CON=C(C(=O)N[C@@H]1C(=O)N2C(C(=O)OCOC(=O)C(C)(C)C)=C(CSc3nnc(N)s3)CS[C@H]12)c1csc(N)n1 [Example 3, pivaloyloxymethyl 7-beta-[2-(2-amino-4-thiazolyl) -2-methoxyiminoacetamido]-3-(2-amino-1,3,4,-thiadiazolyl-5-thiomethyl)-3-cepheme-4-carboxylate]
- Minimum growth-inhibition concentration (MIC) on Serratia marcescens IAM 1223 [1]: ≥ 100
- LD50 at 168 h ([7]; ip, read-out: LD50 (intraperitoneous)): > 10000 mg/kg
- LD50 at 168 h ([7]; po, read-out: LD50 (oral)): > 10000 mg/kg
- Autopsy findings (ICR-JCL mice): No noticeable information
- Minimum growth-inhibition concentration (MIC) on E. coli IFO 12734 (E. coli IFO 12734): 12.5
- Minimum growth-inhibition concentration (MIC) on Staphylococcus aureus IAM 1011 [2]: ≥ 100
- log10 value of the number of bacterial cells/g of feces, Lact. bifidus (Lactobacillus bifidus): 8.4 log10 of bacterial cells/g of
- Ratio of diameter of growth-inhibiting circle to that of formula (I), sign ([8]; added with S-9 mix): +++ (67 to 100)
- Ratio of diameter of growth-inhibiting circle to that of formula (I), sign ([8]; without addition of S-9 mix): ± (0 to 1)
- Activity against Escherichia coli, in words (Escherichia coli [9]; after metabolized by the rat liver homogenate): active
- Activity to Escherichia coli, in words (Escherichia coli [9]; compound itself, without S-9 mix): inactive
- log10 value of the number of bacterial cells/g of feces, E. coli (Escherichia coli [10]): 6.5 log10 of bacterial cells/g of
- Minimum growth-inhibition concentration (MIC) on E. coli W 3636 (E. coli W 3636): 50
- Minimum growth-inhibition concentration (MIC) on Pseudomonas aeruginosa IAM 1514 [4]: ≥ 100
- log10 value of the number of bacterial cells/g of feces, Streptococcus sp. (Streptococcus sp.): 7.0 log10 of bacterial cells/g of
- log10 value of the number of bacterial cells/g of feces, Bacterioides sp. (Bacterioides sp.): 8.2 log10 of bacterial cells/g of
- Anti-bacterial activity (MIC), in words (test bacterial species): not so small to verify the anti-bacterial activity
- log10 value of the number of bacterial cells/g of feces, Pse. aeruginosa (Pseudomonas aeruginosa): < 3.0 log10 of bacterial cells/g of
- log10 value of the number of bacterial cells/g of feces, Lactobacillus sp. (Lactobacillus sp.): 8.9 log10 of bacterial cells/g of
- Minimum growth-inhibition concentration (MIC) on Proteus vulgaris IAM 1025 [6]: 12.5
- Rate of survival (Escherichia coli IFO): over 60%
